pIC50: −log10 of the molar value. Calls of active or inactive are those of the source. No cut-off for these calls is given here.
Key:
[1] = Immunosuppressive activity in C57BL/6J mouse B-lymphocyte assessed as inhibition of LPS-induced cell proliferation at 0.3125 to 40 uM incubated for 72 hrs by flow cytometry analysis; format: functional, cell-based; settings: dose 0.3125-40 µM
[2] = Cytotoxicity against human […] cells assessed as cell growth inhibition by MTT assay; format: functional, cell-based
HL-60 = assay: Cytotoxicity against human HL-60 cells assessed as cell growth inhibition by MTT assay; format: functional, cell-based
HepG2 = assay: Cytotoxicity against human HepG2 cells assessed as cell growth inhibition by MTT assay; format: functional, cell-based
A549 = assay: Cytotoxicity against human A549 cells assessed as cell growth inhibition by MTT assay; format: functional, cell-based
SU-DHL-2 [3] = assay: Cytotoxicity against human SUDHL2 cells assessed as cell growth inhibition by MTT assay; format: functional, cell-based
SU-DHL-2 [4] = assay: Induction of apoptosis in human SUDHL2 cells assessed as late apoptotic cells at 10 uM measured by Annexin V-FITC/PI staining based flow cytometry assay (reference value: 3.10%); format: functional
SU-DHL-2 [5] = assay: Induction of apoptosis in human SUDHL2 cells assessed as early apoptotic cells at 2 uM measured by Annexin V-FITC/PI staining based flow cytometry assay (reference value: 4.52%); format: functional
SU-DHL-2 [6] = assay: Induction of apoptosis in human SUDHL2 cells assessed as viable cells at 2 uM measured by Annexin V-FITC/PI staining based flow cytometry assay (reference value: 92.2%); format: functional; settings: read-out: Activity
SU-DHL-2 [7] = assay: Induction of apoptosis in human SUDHL2 cells assessed as necrotic cells at 10 uM measured by Annexin V-FITC/PI staining based flow cytometry assay (reference value: 0.23%); format: functional
SU-DHL-2 [8] = assay: Induction of apoptosis in human SUDHL2 cells assessed as late apoptotic cells at 2 uM measured by Annexin V-FITC/PI staining based flow cytometry assay (reference value: 3.10%); format: functional
SU-DHL-2 [9] = assay: Induction of apoptosis in human SUDHL2 cells assessed as necrotic cells at 2 uM measured by Annexin V-FITC/PI staining based flow cytometry assay (reference value: 0.23%); format: functional
SU-DHL-2 [10] = assay: Induction of apoptosis in human SUDHL2 cells assessed as early apoptotic cells at 10 uM measured by Annexin V-FITC/PI staining based flow cytometry assay (reference value: 4.52%); format: functional
SU-DHL-2 [11] = assay: Induction of apoptosis in human SUDHL2 cells assessed as viable cells at 10 uM measured by Annexin V-FITC/PI staining based flow cytometry assay (reference value: 92.2%); format: functional; settings: read-out: Activity
B-cell line = assay: Immunosuppressive activity in C57BL/6J mouse B-lymphocyte assessed as inhibition of LPS-induced cell proliferation incubated for 72 hrs by flow cytometry analysis; format: functional, cell-based

Compound	inhibition [1]	pIC50 [2]	pIC50 (HL-60)	pIC50 (HepG2)	pIC50 (A549)	pIC50 (SU-DHL-2 [3])	other results
CC(C)[C@@H](C)/C=C/[C@@H](C)[C@H]1CC(=O)C2=C3[C@H](O)[C@H]4O[C@]45C[C@@H](O)CC[C@]5(C)[C@H]3CC[C@@]21C	inactive	–	–	–	–	–	–
CC(C)[C@@H](C)/C=C/[C@@H](C)[C@H]1CCC(=O)[C@]23CC(=O)C4=CC(=O)CC[C@]4(C)[C@H]2CC[C@]13C [DANKASTERONE A]	inactive	< 4.40	5.42	4.92	4.60	5.18	–
COc1cc([C@@H]2c3cc4c(cc3[C@@H](O[C@@H]3O[C@@H]5CO[C@@H](C)O[C@H]5[C@H](O)[C@H]3O)[C@H]3COC(=O)[C@H]23)OCO4)cc(OC)c1O [ETOPOSIDE]	–	4.28	5.68	4.68	5.00	5.68	–
CO[C@@H]1C=C2[C@@H]3CC[C@H]([C@H](C)/C=C/[C@H](C)C(C)C)[C@@]3(C)C[C@H]3O[C@@]23[C@@]2(C)CC[C@H](O)C[C@]12O	inactive	4.85	5.21	4.62	4.74	6.40	Activity (SU-DHL-2 [4]): 54%; Activity (SU-DHL-2 [5]): 6.67%; viability at 2 µM (SU-DHL-2 [6]): 78.2%; Activity (SU-DHL-2 [7]): 4.02%; Activity (SU-DHL-2 [8]): 14.3%; Activity (SU-DHL-2 [9]): 0.87%; Activity (SU-DHL-2 [10]): 15%; viability at 10 µM (SU-DHL-2 [11]): 26.9%
CC(C)[C@@H](C)/C=C/[C@@H](C)[C@H]1CC(=O)C2=C3[C@H](O)[C@H]4O[C@]45C[C@@H](O)CC[C@]5(C)[C@@]3(O)CC[C@@]21C	inactive	–	–	–	–	–	–
C=C(CC[C@@H](C(=O)O)[C@H]1CC[C@H]2C3=C[C@@H](O)[C@@]45O[C@@H]4[C@H](O)[C@@H]4O[C@@H]4[C@]5(C)[C@H]3CC[C@]12C)C(C)C	inactive	< 4.40	< 4.40	< 4.40	< 4.40	< 4.40	–
COC(=O)[C@@]12CC[C@@]3(C)[C@]1(O)C(=O)C=C1[C@]4(O)CC[C@H]([C@H](C)/C=C/[C@H](C)C(C)C)[C@@]4(C)CC[C@@]13OO2	inactive	< 4.40	< 4.40	< 4.40	< 4.40	< 4.40	–
CC(C)[C@@H](C)/C=C/[C@@H](C)[C@H]1CC[C@]2(O)C3=CC(=O)[C@@H]4[C@@]5(O)CC[C@]4(C)[C@]3(CC[C@]12C)OC5=O	inactive	–	–	–	–	–	–
C=C(CC[C@@H](C(=O)O)[C@H]1CC[C@H]2C3=C[C@@H](O)[C@@]45O[C@@H]4C(=O)C=C[C@]5(C)[C@H]3CC[C@]12C)C(C)C	inactive	4.89	5.14	4.62	< 4.40	5.16	–
CC(C)[C@@H](C)/C=C/[C@@H](C)[C@H]1CC[C@]2(O)C3=CC(=O)C4=CC(=O)CC[C@]4(C)[C@@]3(O)CC[C@]12C	inactive	4.52	5.06	4.72	4.51	5.12	–
CO[C@@H]1C=C2C=CC3=C4C(=O)C[C@H]([C@H](C)/C=C/[C@H](C)C(C)C)[C@@]4(C)CC[C@]3(O)[C@@]2(C)CC1	inactive	< 4.40	4.60	< 4.40	< 4.40	< 4.40	–
COC(=O)[C@@]12CC[C@@]3(C)[C@]1(O)C(=O)C=C1[C@@]4(O)CC[C@H]([C@H](C)/C=C/[C@H](C)C(C)C)[C@@]4(C)CC[C@@]13OO2	inactive	< 4.40	4.49	< 4.40	< 4.40	< 4.40	–
CC(C)[C@@H](C)/C=C/[C@@H](C)[C@H]1C[C@@H](O)C2=C3C=CC4=CC(=O)CC[C@]4(C)[C@@]3(O)CC[C@@]21C	–	< 4.40	< 4.40	< 4.40	< 4.40	< 4.40	pIC50 (B-cell line): 5.07
CC(=O)O[C@@H]1C[C@]2(C)[C@@H]([C@H](C)/C=C/[C@H](C)C(C)(C)O)CC[C@H]2C2=CC(=O)[C@H]3CC(=O)CC[C@]3(C)[C@H]21	inactive	5.04	4.96	4.60	4.66	4.72	–
CC(C)[C@@H](C)/C=C/[C@@H](C)[C@H]1CC[C@@]2(O)C3=CC(=O)C4=CC(=O)CC[C@]4(C)[C@@]3(O)CC[C@]12C	inactive	–	–	–	–	–	–
CC(C)[C@@H](C)/C=C/[C@@H](C)[C@H]1CCC(=O)[C@]23CC(=O)[C@@H]4CC(=O)CC[C@]4(C)[C@H]2CC[C@]13C	inactive	–	–	–	–	–	–
COC1(OC)CC[C@@]2(C)[C@H](C1)C(=O)C=C1[C@@H]2[C@H](OC(C)=O)C[C@]2(C)[C@@H]([C@H](C)/C=C/C(C)C(C)(C)O)CC[C@@H]12 (single isomer, unassigned)	inactive	4.96	5.08	4.54	4.89	4.60	–

— ChEMBL document CHEMBL5370583, “Cytotoxic Ergosteroids from a Strain of the Fungus Talaromyces adpressus” (J Nat Prod, 2023)
